Experimental data published in ChEMBL document CHEMBL4229567, “Aiming to Miss a Moving Target: Bromo and Extra Terminal Domain (BET) Selectivity in Constrained ATAD2 Inhibitors” (J Med Chem, 2018).

Target: T1, ATPase family AAA domain-containing protein 2 (Homo sapiens, UniProt Q6PL18)
T1 sequence (Q6PL18 whole entry): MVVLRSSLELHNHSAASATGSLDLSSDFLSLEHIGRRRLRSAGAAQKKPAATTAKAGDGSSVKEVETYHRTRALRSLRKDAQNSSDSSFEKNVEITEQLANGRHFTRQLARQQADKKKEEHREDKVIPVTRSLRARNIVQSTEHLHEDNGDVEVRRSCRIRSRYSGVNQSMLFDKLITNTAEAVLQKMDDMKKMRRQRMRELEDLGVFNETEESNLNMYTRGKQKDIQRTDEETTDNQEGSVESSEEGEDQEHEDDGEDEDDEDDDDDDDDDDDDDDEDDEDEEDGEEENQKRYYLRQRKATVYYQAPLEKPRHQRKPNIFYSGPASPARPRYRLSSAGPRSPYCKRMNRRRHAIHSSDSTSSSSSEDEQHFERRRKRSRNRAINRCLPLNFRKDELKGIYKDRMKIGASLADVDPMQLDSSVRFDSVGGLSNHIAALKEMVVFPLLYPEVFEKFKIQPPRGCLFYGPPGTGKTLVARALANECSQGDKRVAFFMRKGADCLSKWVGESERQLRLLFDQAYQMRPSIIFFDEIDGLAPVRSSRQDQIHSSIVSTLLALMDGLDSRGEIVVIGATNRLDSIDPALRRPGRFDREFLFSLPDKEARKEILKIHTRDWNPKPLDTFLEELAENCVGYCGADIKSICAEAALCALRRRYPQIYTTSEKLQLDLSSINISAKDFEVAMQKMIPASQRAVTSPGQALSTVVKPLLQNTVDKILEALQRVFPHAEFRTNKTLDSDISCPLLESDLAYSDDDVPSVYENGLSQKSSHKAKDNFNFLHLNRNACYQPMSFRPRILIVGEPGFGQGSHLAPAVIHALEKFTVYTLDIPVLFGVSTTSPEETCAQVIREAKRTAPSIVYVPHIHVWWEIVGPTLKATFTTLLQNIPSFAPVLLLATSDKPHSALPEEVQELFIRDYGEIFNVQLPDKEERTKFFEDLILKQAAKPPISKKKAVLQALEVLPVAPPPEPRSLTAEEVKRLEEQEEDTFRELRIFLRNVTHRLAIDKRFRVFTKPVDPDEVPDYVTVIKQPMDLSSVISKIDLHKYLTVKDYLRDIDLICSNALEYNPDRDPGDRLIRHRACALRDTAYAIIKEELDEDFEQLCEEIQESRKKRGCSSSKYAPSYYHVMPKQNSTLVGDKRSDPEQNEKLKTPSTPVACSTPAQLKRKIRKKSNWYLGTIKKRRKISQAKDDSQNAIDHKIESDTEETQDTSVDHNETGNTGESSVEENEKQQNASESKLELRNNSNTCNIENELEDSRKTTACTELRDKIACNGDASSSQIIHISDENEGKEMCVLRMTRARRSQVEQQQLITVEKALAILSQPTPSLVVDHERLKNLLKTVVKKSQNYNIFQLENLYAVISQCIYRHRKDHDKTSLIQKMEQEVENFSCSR
Test: Inhibition of N-terminal FLAG-6His-tagged TEV-fused ATAD2 (981 to 1121 residues) (unknown origin) expressed in Escherichia coli BL21(DE3) after 30 mins in presence of biotinylated triacetylated histone H4 peptide by alexa fluor 488-dye based TR-FRET assay

| IC50 [µM] | SMILES |
| --- | --- |
| 25.1 | CO[C@H]1CNC[C@@H](OC)[C@@H]1Nc1nccc2cc(C)c(=O)[nH]c12 |
| 0.251 | Cc1cncc(-c2cnc(N[C@@H]3C[C@H]4CC[C@H](N4)[C@H]3CCC3CCOCC3)c3[nH]c(=O)c(C)cc23)c1 |
| 0.1 | Cc1cncc(-c2cnc(N[C@@H]3C[C@H]4CC[C@H](N4)[C@H]3CCC3CCC(F)(F)CC3)c3[nH]c(=O)c(C)cc23)c1 |
| 0.0398 | Cc1cncc(-c2ccc(N[C@@H]3CCNC[C@H]3OCC3CCC(F)(F)CC3)c3[nH]c(=O)c(C)cc23)c1 |
| 0.251 | Cc1cncc(-c2cnc(N[C@@H]3C[C@H]4CC[C@H](N4)[C@H]3CCC3CCS(=O)(=O)CC3)c3[nH]c(=O)c(C)cc23)c1 |
| 0.2 | CO[C@H]1CNC[C@@H](OCC2CCOCC2)[C@@H]1Nc1ncc(-c2cncc(C)c2)c2cc(C)c(=O)[nH]c12 |
| 0.251 | Cc1cncc(-c2ccc(N[C@@H]3C[C@H]4CC[C@H](N4)[C@H]3CCC3CCS(=O)(=O)CC3)c3[nH]c(=O)c(C)cc23)c1 |
| 0.126 | CO[C@H]1CNC[C@@H](OCC2CCS(=O)(=O)CC2)[C@@H]1Nc1ncc(-c2cncc(C)c2)c2cc(C)c(=O)[nH]c12 |

Target: Bromodomain-containing protein 4 (Homo sapiens, UniProt O60885)
Test: Inhibition of 6His-tagged Thr-BRD4 (BD1) (1 to 477 residues) (unknown origin) expressed in Escherichia coli BL21(DE3) after 30 mins in presence of biotinylated triacetylated histone H4 peptide by alexa fluor 647 dyse based TR-FRET assay

| IC50 [µM] | SMILES |
| --- | --- |
| 10 | Cc1cncc(-c2cnc(N[C@@H]3CCNC[C@H]3OCC3CCOCC3)c3[nH]c(=O)c(C)cc23)c1 |
| 3.98 | Cc1cc2ccnc(N[C@@H]3CCNC[C@H]3OCC3CCCCC3)c2[nH]c1=O |
| 5.01 | CO[C@@H]1CNCC[C@H]1Nc1nccc2cc(C)c(=O)[nH]c12 |
| 25.1 | CO[C@H]1CNC[C@@H](OC)[C@@H]1Nc1nccc2cc(C)c(=O)[nH]c12 |
| 7.94 | Cc1cncc(-c2cnc(N[C@@H]3C[C@H]4CC[C@H](N4)[C@H]3CCC3CCOCC3)c3[nH]c(=O)c(C)cc23)c1 |
| 5.01 | Cc1cncc(-c2cnc(N[C@@H]3C[C@H]4CC[C@H](N4)[C@H]3CCC3CCC(F)(F)CC3)c3[nH]c(=O)c(C)cc23)c1 |
| 6.31 | Cc1cncc(-c2ccc(N[C@@H]3CCNC[C@H]3OCC3CCC(F)(F)CC3)c3[nH]c(=O)c(C)cc23)c1 |
| > 50.1 | Cc1cncc(-c2cnc(N[C@@H]3C[C@H]4CC[C@H](N4)[C@H]3CCC3CCS(=O)(=O)CC3)c3[nH]c(=O)c(C)cc23)c1 |
| 31.6 | CO[C@H]1CNC[C@@H](OCC2CCOCC2)[C@@H]1Nc1ncc(-c2cncc(C)c2)c2cc(C)c(=O)[nH]c12 |
| 5.01 | Cc1cncc(-c2ccc(N[C@@H]3C[C@H]4CC[C@H](N4)[C@H]3CCC3CCS(=O)(=O)CC3)c3[nH]c(=O)c(C)cc23)c1 |
| 158 | CO[C@H]1CNC[C@@H](OCC2CCS(=O)(=O)CC2)[C@@H]1Nc1ncc(-c2cncc(C)c2)c2cc(C)c(=O)[nH]c12 |
